Source: patent publication US11427548B2 (Arvinas Operations, Inc., priority 2015, dated 2022)
Read-outs that look alike come from different tables or passages of the source.

Biological target: T1, Androgen Receptor (Homo sapiens, UniProt P10275)
T1 construct: endogenous in cells; host or cells: VCaP cells
T1 sequence (P10275 1-920): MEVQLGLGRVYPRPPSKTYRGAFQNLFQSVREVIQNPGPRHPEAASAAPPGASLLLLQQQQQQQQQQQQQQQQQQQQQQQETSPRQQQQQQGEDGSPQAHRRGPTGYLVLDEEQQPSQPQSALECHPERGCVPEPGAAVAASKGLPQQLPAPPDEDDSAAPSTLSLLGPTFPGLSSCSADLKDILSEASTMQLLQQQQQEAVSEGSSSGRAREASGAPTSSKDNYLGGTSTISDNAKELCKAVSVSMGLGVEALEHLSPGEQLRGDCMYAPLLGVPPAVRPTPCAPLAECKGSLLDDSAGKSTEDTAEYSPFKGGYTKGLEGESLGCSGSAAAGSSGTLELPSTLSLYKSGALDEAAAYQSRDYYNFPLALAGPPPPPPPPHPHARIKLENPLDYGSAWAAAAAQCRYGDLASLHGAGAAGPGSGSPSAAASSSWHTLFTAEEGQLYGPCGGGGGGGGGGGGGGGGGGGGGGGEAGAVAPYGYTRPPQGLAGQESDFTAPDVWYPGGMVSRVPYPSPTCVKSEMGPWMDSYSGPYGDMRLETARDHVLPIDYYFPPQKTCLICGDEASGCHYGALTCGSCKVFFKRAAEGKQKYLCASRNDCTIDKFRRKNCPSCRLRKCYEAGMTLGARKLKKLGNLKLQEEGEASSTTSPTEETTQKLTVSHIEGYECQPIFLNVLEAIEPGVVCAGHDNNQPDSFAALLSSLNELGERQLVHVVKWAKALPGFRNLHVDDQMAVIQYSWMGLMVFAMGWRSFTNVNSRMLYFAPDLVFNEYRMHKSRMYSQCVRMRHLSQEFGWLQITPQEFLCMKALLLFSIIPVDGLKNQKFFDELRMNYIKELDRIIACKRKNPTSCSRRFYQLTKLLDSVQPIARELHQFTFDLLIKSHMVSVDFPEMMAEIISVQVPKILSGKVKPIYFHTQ
Experiment: Androgen Receptor ELISA assay (PathScan AR ELISA) in VCaP cells: AR degradation, Dmax and DC50
Type: cell-based
Conditions: Table 36; for DC50: read-out: VCaP DC50; for Dmax: VCaP
In short: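 After 24 h exposure of VCaP cells (charcoal-stripped serum, 0.1 nM R1881 agonist, 0.1% DMSO) to seven half-log compound concentrations, residual AR in lysates was measured by PathScan ELISA (TMB absorbance, 450 nm). Cells were plated at 30,000/well and grown at least 3 days beforehand.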

[1] = VCaP cells, read-out: VCaP Dmax (%)

Structure (SMILES)	DC50 (VCaP cells) [nM]	Dmax (read-out: VCaP Dmax (%), VCaP cells) [%]	Dmax [1] [%]
Cc1ncsc1-c1ccc([C@H](C)NC(=O)[C@@H]2C[C@@H](O)CN2C(=O)[C@@H](NC(=O)C(=O)N2CCN(CCOc3ccc(C(=O)N[C@H]4C(C)(C)[C@H](Oc5ccc(C#N)c(C(F)(F)F)c5)C4(C)C)cc3)CC2)C(C)(C)C)cc1 [Example 679, (2S,4R)-1-((S)-2-(2-(4-(2-(4-(((1r,3r)-3-(4-cyano-3-(trifluoromethyl)phenoxy)-2,2,4,4-tetramethylcyclobutyl)carbamoyl)phenoxy)eth-yl)piperazin-1-yl)-2-oxoacetamido)-3,3-dimethylbutanoyl)-4-hydroxy-N-((S)-1-(4-(4-methylthiazol-5-yl)phenyl)ethyl)pyrrolidine-2-carboxamide]	> 501	–	–
Cc1cc(O[C@H]2C(C)(C)[C@H](NC(=O)c3ccc(N4CCN(CCOCC(=O)N[C@H](C(=O)N5C[C@H](O)C[C@H]5C(=O)N[C@@H](C)c5ccc(-c6scnc6C)cc5)C(C)(C)C)CC4)nc3)C2(C)C)ccc1C#N [Example 680, N-((1r,3r)-3-(4-cyano-3-methylphenoxy)-2,2,4,4-tetramethylcyclobutyl)-6-(4-(2-(2-(((S)-1-((2S,4R)-4-hydroxy-2-(((S)-1-(4-(4-methylthiazol-5-yl)phenyl)ethyl)carbam-oyl)pyrrolidin-1-yl)-3,3-dimethyl-1-oxobutan-2-yl)amino)-2-oxoethoxy)ethyl)pipera-zin-1-yl)nicotinamide]	< 50	> 71	–
Cc1nc(O[C@H]2C(C)(C)[C@H](NC(=O)c3ccc(N4CCN(CCOCC(=O)N[C@H](C(=O)N5C[C@H](O)C[C@H]5C(=O)N[C@@H](C)c5ccc(-c6scnc6C)cc5)C(C)(C)C)CC4)nc3)C2(C)C)ccc1C#N [Example 682, N-((1r,3r)-3-((5-cyano-6-methylpyridin-2-yl)oxy)-2,2,4,4-tetramethylcyclobutyl)-6-(4-(2-(2-(((S)-1-((2S,4R)-4-hydroxy-2-(((S)-1-(4-(4-methylthiazol-5-yl)phenyl)ethyl)carbam-oyl)pyrrolidin-1-yl)-3,3-dimethyl-1-oxobutan-2-yl)amino)-2-oxoethoxy)ethyl)pipera-zin-1-yl)nicotinamdie]	< 50	–	> 71
Cc1ncsc1-c1ccc([C@H](C)NC(=O)[C@@H]2C[C@@H](O)CN2C(=O)[C@H](C(C)C)N(C)C(=O)CN2CCN(CCOc3ccc(C(=O)N[C@H]4C(C)(C)[C@H](Oc5ccc(C#N)c(Cl)c5)C4(C)C)cc3)CC2)cc1 [Example 683, (2S,4R)-1-(N-(2-(4-(2-(4-(((1r,3r)-3-(3-chloro-4 cyanophenoxy)-2,2,4,4-tetramethylcyclobutyl)carbamoyl)phenoxy)eth-yl)piperazin-1-yl)acetayl)-N-methyl-L-valyl)-4-hydroxy-N-((S)-1-(4-(4-methylthiazol-5-yl)phenyl)ethyl)pyrrolidine-2-carboxamide]	> 501	–	26 to 50
Cc1ncsc1-c1ccc([C@H](C)NC(=O)[C@@H]2C[C@@H](O)CN2C(=O)[C@@H](NC(=O)COCCN2CCN(c3ccc(C(=O)N[C@H]4C(C)(C)[C@H](Oc5ccc(C#N)c(C(F)(F)F)c5)C4(C)C)nn3)CC2)C(C)(C)C)cc1 [Example 684, N-((1r,3r)-3-(4-cyano-3-(trifluoromethyl)phenoxy)-2,2,4,4-tetramethylcyclobutyl)-6-(4-(2-(2-(((S)-1-((2S,4R)-4-hydroxy-2-(((S)-1-(4-(4-methylthiazol-5-yl)phenyl)ethyl)carbam-oyl)pyrrolidin-1-yl)-3,3-dimethyl-1-oxobutan-2-yl)amino)-2-oxoethoxy)ethyl)pipera-zin-1-yl)pyridazine-3-carboxamide]	< 50	–	51 to 70
